# Experimental data published in patent US20260001834A1, “COMPOUND OR SALT THEREOF, LIPID COMPOSITION, PHARMACEUTICAL COMPOSITION, AND DELIVERY CARRIER” (FUJIFILM Corporation, priority 2023, published 2026).
# Key:
# ICR mice [1] = experiment: EPO expression level in mice after intravenous EPO mRNA lipid nanoparticles (human EPO ELISA of plasma); assay type: in vivo; conditions: mRNA dosage 0.1 mg/kg, plasma 6 hours after administration, Comparative Example set to 1
# Description: (§1) The compounds shown in Table 9, 1,2-distearoyl-sn-glycero-3-phosphocholine (product name: COATSOME® MC-8080; NOF corporation) (hereinafter, DSPC), cholesterol (product name: Cholesterol HP; Nippon Seika Co., Ltd.), and 1,2-dimyristoyl-rac-glycero-3-(methylpolyoxyethylene 2000) (hereinafter, DMG-PEG2000) (product name: SUNBRIGHT® GM-020; NOF corporation) were dissolved in ethanol at a molar ratio (mol %) of compounds shown in Table 9:1,2-distearoyl-sn-glycero-3-phosphocholine:cholesterol:DMG-PEG2000=50:10:38.5:1.5 such that the total lipid concentration was 12.5 mmol/L, thereby obtaining an oil phase.
# (§2) EPO mRNA (product name: CleanCap EPO mRNA (5moU); TriLink) was diluted with 50 mmol/L citrate buffer having a pH 4.0 such that the weight ratio of total lipid concentration to mRNA concentration is about 20:1, thereby obtaining a water phase. Then, the water phase and the oil phase were mixed together using NanoAssemblr (Precision NanoSystems) such that the volume ratio of water phase:oil phase was 3:1, and the mixed solution was 2-fold diluted with phosphate buffered physiological saline (PBS) or water, thereby obtaining a dispersion liquid of mRNA lipid nanoparticles. The dispersion liquid was dialyzed with 20 mM Tris buffer solution containing 8% sucrose using a dialysis cassette (Slide-A-Lyzer G2, MWCO: 10 kD, Thermo Fisher Scientific) to remove ethanol, thereby obtaining EPO mRNA-encapsulating lipid nanoparticles.
# (§3) The dispersion liquid of mRNA lipid nanoparticles prepared in above <Preparation of EPO mRNA-encapsulating lipid nanoparticles> was intravenously administered to ICR mice at a mRNA dosage of 0.1 mg/kg. 6 hours after the administration, blood was collected from the caudal vena cava, thereby obtaining plasma. The human EPO […] was quantified by using the obtained blood plasma and Erythropoietin (EPO) Human Elisa Kit (Abcam.plc). The quantitative value is described as a relative amount of EPO protein in a case where Comparative Example is set to 1.
# [2] = Particle diameter and polydispersity index (PdI) of mRNA-encapsulating lipid nanoparticles; assay type: physicochemical; conditions: EPO mRNA-encapsulating lipid nanoparticles, compound:DSPC:cholesterol:DMG-PEG2000=50:10:38.5:1.5; diluted with PBS
# Description: as §1, §2
# The particle diameter and the polydispersity index (PdI) of the mRNA-encapsulating lipid nanoparticles were obtained by measuring a dispersion liquid of lipid nanoparticles diluted with phosphate buffered physiological saline (PBS) using a particle size analyzer NanoSAQLA (Otsuka Electronics Co., Ltd.).
# [3] = Encapsulation rate of mRNA in lipid nanoparticles; assay type: physicochemical; conditions: EPO mRNA-encapsulating lipid nanoparticles, compound:DSPC:cholesterol:DMG-PEG2000=50:10:38.5:1.5
# Description: as §1, §2
# <Evaluation of Encapsulation Rate of mRNA> (Quantification of Total mRNA Concentration)
# EPO mRNA was diluted with MilliQ water to prepare a diluted sample in 2-fold dilution series from 100 μg/mL to 3.1 μg/mL, and a standard solution for calibration was prepared. 50 μL of the standard solution for calibration or the mRNA lipid nanoparticles was mixed with 450 μL of methanol to prepare a measurement solution.
# The absorbance of each measurement solution at 260 nm and 330 nm was measured using a UV plate reader (Multiskan Go, Thermo Fisher Scientific), the absorbance at 330 nm was subtracted from the absorbance at 260 nm, and the result was used as the absorbance of each measurement solution. The total water phase nucleic acid concentration was calculated from the calibration curve using the absorbance of each sample measurement solution.
# (Quantification of mRNA Concentration in Outer Water Phase)
# The concentration of the outer water phase nucleic acid was quantified by a standard addition method using a QuanT-iT RiboGreen RNA Assay Kit (Thermo Fisher Scientific). First, a 20×TE buffer included in the above kit was diluted with water, thereby obtaining a 1×TE buffer. TE represents Tris/EDTA (ethylenediaminetetraacetic acid). EPO mRNA was diluted with a TE buffer such that the final concentration was 0 to 400 ng/mL to prepare a nucleic acid diluted series. 10 μL of mRNA lipid nanoparticles diluted 5-fold with TE buffer and 90 μL of a nucleic acid dilution series were mixed in a 96-well plate, 100 μL of a Ribogreen reagent diluted 200-fold with TE buffer was added to each well, and then fluorescence (excitation wavelength: 485 nm, fluorescence wavelength: 535 nm) was measured using a fluorescence plate reader (Infinite 200 Pro M nano+, TECAN). From the obtained results, the outer water phase nucleic acid concentration of each measurement solution was calculated according to the standard addition method.
# (Calculation of Encapsulation Rate)
# By using the quantification results of the total mRNA concentration and the mRNA concentration in the outer water phase that were obtained through the above steps, the mRNA encapsulation rate of the mRNA lipid nanoparticles was calculated according to the following Equation.
# ICR mice [4] = experiment: EPO expression level in mice, dose dependency (human EPO ELISA of plasma); assay type: in vivo; conditions: intravenous, plasma 6 hours after administration
# Description: as §1, §2
# as §3, with “0.1, 0.5, and 1” for “0.1”, “where the amount of EPO protein at the time of 0.1 mg/kg administration in” for “where”
Particle diameter (nm) [2] [nm],PdI [2],Nucleic acid encapsulation rate [3] [%],Structure (SMILES),Relative amount of EPO protein (with respect to Comparative Example 1) (ICR mice [1]),Relative amount of EPO protein (with respect to Comparative Example 1 at 0.1 mg/kg) (ICR mice [4]; mRNA dosage 0.1 mg/kg),Relative amount of EPO protein (with respect to Comparative Example 1 at 0.1 mg/kg) (ICR mice [4]; mRNA dosage 0.5 mg/kg),Relative amount of EPO protein (with respect to Comparative Example 1 at 0.1 mg/kg) (ICR mice [4]; mRNA dosage 1.0 mg/kg)
161,0.07,50,"CCCCCCCC(=O)OCCN(CCOC(=O)OC(CCCCCC)CCCC(=O)OCC(CCCC)CCCCCC)CCN(CC)CC (stereo not shown) [Comparative Example, 2-butyloctyl 3-ethyl-12-hexyl-6-(2-(octanoyloxy)ethyl)-10-oxo-9,11-dioxa-3,6-diazahexadecan-16-oate, reference compound]",1.00,1.00,0.25,1.10
105,0.06,84,"CCCCCCCOC(=O)CCCC(CCCCCC)OC(=O)OCCN(CCOC(=O)C(CCCCCCC)CCCCCCC)CCN(CC)CC (stereo not shown) [Compound 3, heptyl 3-ethyl-6-(2-((2-heptylnonanoyl)oxy)ethyl)-12-hexyl-10-oxo-9,11-dioxa-3,6-diazahexadecan-16-oate]",3.16,1.91,17.26,27.22
85,0.11,95,"CCCCCCCCC(CCCCCCCC)C(=O)OCCN(CCCN(CC)CC)CCOC(=O)OC(CCCCCC)CCCCC(=O)OCCCCCCC (stereo not shown) [Compound 23, heptyl 3-ethyl-13-hexyl-7-(2-((2-octyldecanoyl)oxy)ethyl)-11-oxo-10,12-dioxa-3,7-diazaoctadecan-1 8-oate]",4.71,4.97,25.74,43.74
98,0.13,94,"CCCCCCCCC(CCCCCC)C(=O)OCCN(CCCN(CC)CC)CCOC(=O)OC(CCCCCC)CCCCC(=O)OCCCCCCC (stereo not shown) [Compound 24, heptyl 3-ethyl-13-hexyl-7-(2-((2-hexyldecanoyl)oxy)ethyl)-11-oxo-10,12-dioxa-3,7-diazaoctadecan-18-oate]",6.54,4.65,26.81,45.73
